Measurements: patent publication US8802597B2, “Herbicidal pyrimidines” (E I du Pont de Nemours and Company, priority 2003, dated 2014)

What was measured:
Format in all cases: in vivo
[1] = tested on: Surinam grass (Brachiaria decumbens); test: Test B pre/postemergence; details: for Surinam Grass plant response rating: Postemergence; for Plant response rating, Surinam Grass: Preemergence
Method in brief: (§1)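 Formulation: non-phytotoxic solvent blend with surfactant. Timing: preemergence on seeds, postemergence at 1- to 4-leaf (2–18 cm). Assessment: visual, 0–100 against controls, after 13–15 days' greenhouse growth.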

[2] = tested on: barnyardgrass (Echinochloa crus-galli); test: Test B pre/postemergence; details: for Barnyardgrass plant response rating: Postemergence, scale 0 to 100 (0 no effect, 100 complete control)
Method in brief: as §1

[3] = tested on: cocklebur (Xanthium strumarium); test: Test B pre/postemergence; details: for Cocklebur plant response rating: Postemergence; for Plant response rating, Cocklebur: Preemergence
Method in brief: as §1

corn (Zea mays) = test: Test B pre/postemergence; details: for Corn plant response rating: Postemergence; for Plant response rating, Corn: Preemergence
Method in brief: as §1

[4] = tested on: crabgrass (Digitaria sanguinalis); test: Test B pre/postemergence; details: for Crabgrass plant response rating: Postemergence; for Plant response rating, Crabgrass: Preemergence
Method in brief: as §1

[5] = tested on: giant foxtail (Setaria faberii); test: Test B pre/postemergence; details: for Foxtail, Giant plant response rating: Postemergence; for Plant response rating, Foxtail, Giant: Preemergence
Method in brief: as §1

[6] = tested on: lambsquarters (Chenopodium album); test: Test B pre/postemergence; details: for Lambsquarters plant response rating: Postemergence; for Plant response rating, Lambsquarters: Preemergence
Method in brief: as §1

[7] = tested on: morningglory (Ipomoea coccinea); test: Test B pre/postemergence; details: for Morningglory plant response rating: Postemergence; for Plant response rating, Morningglory: Preemergence
Method in brief: as §1

[8] = tested on: pigweed (Amaranthus retroflexus); test: Test B pre/postemergence; details: for Pigweed plant response rating: Postemergence; for Plant response rating, Pigweed: Preemergence
Method in brief: as §1

[9] = tested on: velvetleaf (Abutilon theophrasti); test: Test B pre/postemergence; details: for Velvetleaf plant response rating: Postemergence; for Plant response rating, Velvetleaf: Preemergence
Method in brief: as §1

[10] = tested on: wheat (Triticum aestivum); test: Test B pre/postemergence; details: for Wheat plant response rating: Postemergence; for Plant response rating, Wheat: Preemergence
Method in brief: as §1

[11] = tested on: blackgrass (Alopecurus myosuroides); test: Test B postemergence; details: scale 0 to 100 (0 no effect, 100 complete control)
Method in brief: as §1

wild oat (Avena fatua) = test: Test B postemergence; details: scale 0 to 100 (0 no effect, 100 complete control)
Method in brief: as §1

[12] = tested on: barnyardgrass (Echinochloa crus-galli); test: Test B flooded paddy test; details: Flood, scale 0 to 100
Method in brief: (§2)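 Rice, umbrella sedge, duck salad and barnyardgrass grown to 2-leaf stage under flooded paddy conditions and treated with formulated test chemicals. Kept in greenhouse 13–15 days, then visually rated against untreated controls on a 0–100 scale (0 no effect, 100 complete control).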

[13] = tested on: duck salad (Heteranthera limosa); test: Test B flooded paddy test; details: Flood, scale 0 to 100
Method in brief: as §2

rice (Oryza sativa) = test: Test B flooded paddy test; details: Flood, scale 0 to 100
Method in brief: as §2

[14] = tested on: umbrella sedge (Cyperus difformis); test: Test B flooded paddy test; details: Flood, scale 0 to 100
Method in brief: as §2

[15] = 62 g ai/ha, scale 0 to 100 (0 no effect, 100 complete control)
[16] = 125 g ai/ha, scale 0 to 100 (0 no effect, 100 complete control)
[17] = 62 g ai/ha, scale 0 to 100, 0 no effect, 100 complete control

## Nc1nc(-c2ccc(Br)cc2)nc(C(=O)O)c1Br [Compound 136]
[1]; [15]
  Surinam Grass plant response rating: 70
[1]; [16]
  Surinam Grass plant response rating: 80
  Plant response rating, Surinam Grass: 50
[1]; [17]
  Plant response rating, Surinam Grass: 10
[2]; 62 g ai/ha
  Barnyardgrass plant response rating: 70
[2]; 125 g ai/ha
  Barnyardgrass plant response rating: 90
[2]; Preemergence, 62 g ai/ha, scale 0 to 100, 0 no effect, 100 complete control
  Plant response rating, Barnyardgrass: 30
[3]; [15]
  Cocklebur plant response rating: 90
[3]; [16]
  Cocklebur plant response rating: 100
  Plant response rating, Cocklebur: 70
[3]; [17]
  Plant response rating, Cocklebur: 40
Corn (Zea mays); [15]
  Corn plant response rating: 40
Corn (Zea mays); [16]
  Corn plant response rating: 70
  Plant response rating, Corn: 0
Corn (Zea mays); [17]
  Plant response rating, Corn: 0
[4]; [15]
  Crabgrass plant response rating: 70
[4]; [16]
  Crabgrass plant response rating: 80
  Plant response rating, Crabgrass: 80
[4]; [17]
  Plant response rating, Crabgrass: 70
[5]; [15]
  Foxtail, Giant plant response rating: 60
[5]; [16]
  Foxtail, Giant plant response rating: 70
  Plant response rating, Foxtail, Giant: 50
[5]; [17]
  Plant response rating, Foxtail, Giant: 10
[6]; [15]
  Lambsquarters plant response rating: 100
[6]; [16]
  Lambsquarters plant response rating: 100
  Plant response rating, Lambsquarters: 100
[6]; [17]
  Plant response rating, Lambsquarters: 90
[7]; [15]
  Morningglory plant response rating: 40
[7]; [16]
  Morningglory plant response rating: 100
  Plant response rating, Morningglory: 40
[7]; [17]
  Plant response rating, Morningglory: 10
[8]; [15]
  Pigweed plant response rating: 90
[8]; [16]
  Pigweed plant response rating: 100
  Plant response rating, Pigweed: 100
[8]; [17]
  Plant response rating, Pigweed: 80
[9]; [15]
  Velvetleaf plant response rating: 80
[9]; [16]
  Velvetleaf plant response rating: 90
  Plant response rating, Velvetleaf: 80
[9]; [17]
  Plant response rating, Velvetleaf: 60
[10]; [15]
  Wheat plant response rating: 20
[10]; [16]
  Wheat plant response rating: 60
  Plant response rating, Wheat: 70
[10]; [17]
  Plant response rating, Wheat: 50
[11]; 62 g ai/ha
  Blackgrass plant response rating: 70
[11]; 125 g ai/ha
  Blackgrass plant response rating: 70
Wild oat (Avena fatua); 62 g ai/ha
  Oat, Wild plant response rating: 20
Wild oat (Avena fatua); 125 g ai/ha
  Oat, Wild plant response rating: 50
[12]; 125 g ai/ha
  Plant response rating, Barnyardgrass: 0
[12]; 500 g ai/ha
  Plant response rating, Barnyardgrass: 20
[13]; 125 g ai/ha
  Plant response rating, Ducksalad: 90
[13]; 500 g ai/ha
  Plant response rating, Ducksalad: 90
Rice (Oryza sativa); 125 g ai/ha
  Plant response rating, Rice: 0
Rice (Oryza sativa); 500 g ai/ha
  Plant response rating, Rice: 40
[14]; 125 g ai/ha
  Plant response rating, Sedge, Umbrella: 90
[14]; 500 g ai/ha
  Plant response rating, Sedge, Umbrella: 90
